Reference: patent US7790895B2, “Quinoline derivatives as potassium ion channel openers” (Janssen Pharmaceutica NV, priority 2005, dated 2010)

Molecular target: T1, KATP channels (Homo sapiens, UniProt O60706)
T1 construct: TE671 human medulloblastoma cells were obtained from ATCC; host or cells: TE671 human medulloblastoma cells
Experiment: Potassium Channel Assay (FLIPR membrane potential, KATP channel opening)
Assay type: cell-based
Conditions: TE671 human medulloblastoma cells, Membrane Potential Assay Dye, room temperature; for % Stimulation: test concentration not given
Protocol: TE671 human medulloblastoma cells were obtained from ATCC and grown in Dulbecco's modified Eagle's medium (DMEM) supplemented with 10% fetal bovine serum, 100 U/ml penicillin and 100 U/ml streptomycine.
The day before testing, the cells were plated in black 96-well plates at 50K/well. On the day of testing, the growth media was removed, then 100 μl of FLIPR buffer (20 mM HEPES, 120 mM NaCl, 2 mM KCl, 2 mM CaCl2, 1 mM MgCl2, 5 mM Glucose) and 100 μl of Membrane Potential Assay Dye (Molecular Devices) dissolved in FLIPR buffer were added to each well. The cells were incubated at room temperature for 15 to 30 min.
The effect of test compounds on KATP channels were evaluated on a fluorometric imaging plate reader (FLIPR, Molecular Devices) at room temperature. After a baseline period, 50 μl of 5× stock solution of test compound prepared in FLIPR buffer was added and fluorescence change was monitored for 3 minutes. After this reading, glyburide, a KATP channel blocker, was added to a final concentration of 5 μM to check the specificity of the test compound as a KATP channel opener. Hyperpolarization resulting from KATP channel opening was observed as a decrease in fluorescence intensity.

T1 sequence (O60706 1-1549 isoform O60706-2): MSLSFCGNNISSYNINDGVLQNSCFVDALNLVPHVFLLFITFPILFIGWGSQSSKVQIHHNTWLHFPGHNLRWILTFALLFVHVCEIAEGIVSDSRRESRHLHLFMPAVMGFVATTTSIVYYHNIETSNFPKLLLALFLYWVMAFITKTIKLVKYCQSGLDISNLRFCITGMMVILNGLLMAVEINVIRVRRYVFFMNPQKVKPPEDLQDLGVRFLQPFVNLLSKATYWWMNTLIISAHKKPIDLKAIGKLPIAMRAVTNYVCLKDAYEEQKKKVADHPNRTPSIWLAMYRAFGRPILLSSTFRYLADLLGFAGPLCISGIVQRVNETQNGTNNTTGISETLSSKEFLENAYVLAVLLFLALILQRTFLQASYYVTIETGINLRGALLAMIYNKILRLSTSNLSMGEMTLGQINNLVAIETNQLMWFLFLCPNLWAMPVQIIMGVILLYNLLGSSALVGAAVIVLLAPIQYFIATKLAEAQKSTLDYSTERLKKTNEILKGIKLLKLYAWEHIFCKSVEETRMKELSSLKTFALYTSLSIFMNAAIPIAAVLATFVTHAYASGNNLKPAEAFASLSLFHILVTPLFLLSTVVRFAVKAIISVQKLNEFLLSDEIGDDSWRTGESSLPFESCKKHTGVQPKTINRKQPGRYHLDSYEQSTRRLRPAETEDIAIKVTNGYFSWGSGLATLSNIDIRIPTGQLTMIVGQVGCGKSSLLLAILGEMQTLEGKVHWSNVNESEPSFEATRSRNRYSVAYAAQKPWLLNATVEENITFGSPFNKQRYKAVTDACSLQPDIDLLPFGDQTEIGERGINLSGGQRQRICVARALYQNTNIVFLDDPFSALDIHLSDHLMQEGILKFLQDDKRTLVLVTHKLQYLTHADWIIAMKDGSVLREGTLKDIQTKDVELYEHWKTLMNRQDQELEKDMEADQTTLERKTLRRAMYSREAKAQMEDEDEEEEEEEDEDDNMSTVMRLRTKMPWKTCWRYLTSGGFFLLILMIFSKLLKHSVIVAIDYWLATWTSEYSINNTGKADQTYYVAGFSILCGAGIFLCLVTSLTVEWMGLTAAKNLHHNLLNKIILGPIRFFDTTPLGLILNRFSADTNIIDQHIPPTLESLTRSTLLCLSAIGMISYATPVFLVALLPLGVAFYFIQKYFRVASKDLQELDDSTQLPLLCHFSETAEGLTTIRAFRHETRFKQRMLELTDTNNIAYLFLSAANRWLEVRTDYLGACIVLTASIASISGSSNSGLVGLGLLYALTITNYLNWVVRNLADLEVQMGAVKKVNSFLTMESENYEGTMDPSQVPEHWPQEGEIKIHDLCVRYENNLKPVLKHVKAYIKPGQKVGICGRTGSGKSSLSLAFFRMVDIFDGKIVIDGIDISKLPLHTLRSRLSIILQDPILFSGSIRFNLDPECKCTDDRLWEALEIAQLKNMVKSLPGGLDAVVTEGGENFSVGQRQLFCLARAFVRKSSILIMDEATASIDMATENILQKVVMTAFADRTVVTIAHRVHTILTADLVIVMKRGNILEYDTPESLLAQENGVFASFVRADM
T1 sequence (Q14654 whole entry partner): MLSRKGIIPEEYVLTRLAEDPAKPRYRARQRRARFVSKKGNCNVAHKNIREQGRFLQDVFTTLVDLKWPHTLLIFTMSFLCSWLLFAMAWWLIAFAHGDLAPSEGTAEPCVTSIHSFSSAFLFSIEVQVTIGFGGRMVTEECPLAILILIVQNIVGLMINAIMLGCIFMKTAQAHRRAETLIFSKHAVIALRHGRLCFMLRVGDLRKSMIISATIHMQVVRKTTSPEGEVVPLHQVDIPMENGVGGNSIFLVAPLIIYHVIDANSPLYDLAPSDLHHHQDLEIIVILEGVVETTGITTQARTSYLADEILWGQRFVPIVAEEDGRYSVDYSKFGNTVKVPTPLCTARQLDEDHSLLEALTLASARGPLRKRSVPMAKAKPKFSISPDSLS

CCOC(=O)c1cnc2cc(C(F)(F)F)ccc2c1-c1cccc(C#N)c1 [Compound 1, 4-(3-Cyano-phenyl)-7-trifluoromethyl-quinoline-3-carboxylic acid ethyl ester]
EC50: > 30 µM

CCOC(=O)c1cnc2cc(C(F)(F)F)ccc2c1-c1cc(C)cc(OC)c1 [Compound 2, 4-(3-Methoxy-5-methyl-phenyl)-7-trifluoromethyl-quinoline-3-carboxylic acid ethyl ester]
EC50: > 30 µM

CCOC(=O)c1cnc2cc(C(F)(F)F)ccc2c1-c1cc(C(F)(F)F)cc(C(F)(F)F)c1 [Compound 3, 4-(3,5-Bis-trifluoromethyl-phenyl)-7-trifluoromethyl-quinoline-3-carboxylic acid-ethyl ester]
EC50: > 30 µM

CCOC(=O)c1ccc(-c2c(C(=O)OCC)cnc3cc(C(F)(F)F)ccc23)cc1 [Compound 4, 4-(4-Ethoxycarbonyl-phenyl)-7-trifluoromethyl-quinoline-3-carboxylic acid ethyl ester]
EC50: > 30 µM

CCOC(=O)c1cnc2cc(C(F)(F)F)ccc2c1-c1ccc(-c2ccccc2)cc1 [Compound 5, 4-Biphenyl-4-yl-7-trifluoromethyl-quinoline-3-carboxylic acid ethyl ester]
EC50: > 30 µM

CCOC(=O)c1cnc2cc(C(F)(F)F)ccc2c1-c1ccccc1 [Compound 6, 4-Phenyl-7-trifluoromethyl-quinoline-3-carboxylic acid ethyl ester]
EC50: > 30 µM

CCOC(=O)c1cnc2cc(C(F)(F)F)ccc2c1-c1cccc(C(C)=O)c1 [Compound 7, 4-(3-Acetyl-phenyl)-7-trifluoromethyl-quinoline-3-carboxylic acid ethyl ester]
EC50: > 30 µM
% Stimulation: 2%

CCOC(=O)c1cnc2cc(C(F)(F)F)ccc2c1-c1cc(C(F)(F)F)ccc1F [Compound 8, 4-(2-Fluoro-5-trifluoromethyl-phenyl)-7-trifluoromethyl-quinoline-3-carboxylic acid ethyl ester]
EC50: > 30 µM

CCOC(=O)c1cnc2cc(C(F)(F)F)ccc2c1-c1cc(C=O)ccc1OC [Compound 9, 4-(5-Formyl-2-methoxy-phenyl)-7-trifluoromethyl-quinoline-3-carboxylic acid ethyl ester]
EC50: 7.73 µM

CCOC(=O)c1cnc2cc(C(F)(F)F)ccc2c1-c1cccc(C(F)(F)F)c1 [Compound 10, 7-Trifluoromethyl-4-(3-trifluoromethyl-phenyl)-quinoline-3-carboxylic acid ethyl ester]
EC50: > 30 µM

CCOC(=O)c1cnc2cc(C(F)(F)F)ccc2c1-c1cccc(C=O)c1 [Compound 11, 4-(3-Formyl-phenyl)-7-trifluoromethyl-quinoline-3-carboxylic acid ethyl ester]
EC50: > 30 µM
% Stimulation: 2%

CCOC(=O)c1cnc2cc(C(F)(F)F)ccc2c1-c1cccc(CO)c1 [Compound 12, 4-(3-Hydroxymethyl-phenyl)-7-trifluoromethyl-quinoline-3-carboxylic acid ethyl ester]
EC50: > 30 µM
% Stimulation: 20%

CCOC(=O)c1cnc2cc(C(F)(F)F)ccc2c1-c1ccc(C)c(C)c1 [Compound 13, 4-(3,4-Dimethyl-phenyl)-7-trifluoromethyl-quinoline-3-carboxylic acid ethyl ester]
EC50: > 30 µM
% Stimulation: 0%

CCOC(=O)c1cnc2cc(C(F)(F)F)ccc2c1-c1cc(CO)ccc1OC [Compound 14, 4-(5-Hydroxymethyl-2-methoxy-phenyl)-7-trifluoromethyl-quinoline-3-carboxylic acid ethyl ester]
EC50: 4.56 µM

CCOC(=O)c1cnc2cc(C(F)(F)F)ccc2c1OS(=O)(=O)C(F)(F)F [Compound 15, 4-Trifluoromethanesulfonyloxy-7-trifluoromethyl-quinoline-3-carboxylic acid ethyl ester]
EC50: 6.27 µM

N#Cc1cccc(-c2ccncc2C(O)c2ccccc2)c1 (stereo not shown) [Compound 19, 3-[3-(Hydroxy-phenyl-methyl)-pyridin-4-yl]-benzonitrile]
EC50: 9.63 µM

N#Cc1cccc(-c2ccncc2C(O)c2ccc(F)cc2)c1 (stereo not shown) [Compound 20, 3-{3-[(4-Fluoro-phenyl)-hydroxy-methyl]-pyridin-4-yl}-benzonitrile]
EC50: 19.4 µM

N#Cc1cccc(-c2ccncc2C(O)c2cccc(F)c2)c1 (stereo not shown) [Compound 21, 3-{3-[(3-Fluoro-phenyl)-hydroxy-methyl]-pyridin-4-yl}-benzonitrile]
EC50: 23.2 µM

Cc1ccc(C(O)c2cnccc2-c2cccc(C#N)c2)cc1F (stereo not shown) [Compound 22, 3-{3-[(3-Fluoro-4-methyl-phenyl)-hydroxy-methyl]-pyridin-4-yl}-benzonitrile]
EC50: 15.1 µM

N#Cc1cccc(-c2ccncc2C(O)c2ccc(F)c(F)c2)c1 (stereo not shown) [Compound 23, 3-{3-[(3,4-Difluoro-phenyl)-hydroxy-methyl]-pyridin-4-yl}-benzonitrile]
EC50: 11.4 µM

N#Cc1cccc(-c2ccncc2C(O)c2ccc(Cl)c(Cl)c2)c1 (stereo not shown) [Compound 24, 3-{3-[(3,4-Dichloro-phenyl)-hydroxy-methyl]-pyridin-4-yl}-benzonitrile]
EC50: 14.5 µM

N#Cc1cccc(-c2ccncc2C(O)c2cc(Cl)cc(Cl)c2)c1 (stereo not shown) [Compound 25, 3-{3-[(3,5-Dichloro-phenyl)-hydroxy-methyl]-pyridin-4-yl}-benzonitrile]
EC50: 9.82 µM

N#Cc1cccc(-c2ccncc2C(O)c2ccc(Cl)cc2)c1 (stereo not shown) [Compound 26, 3-{3-[(4-Chloro-phenyl)-hydroxy-methyl]-pyridin-4-yl}-benzonitrile]
EC50: 10.2 µM

CC(C)(C)c1ccc(C(O)c2cnccc2-c2cccc(C#N)c2)cc1 (stereo not shown) [Compound 27, 3-{3-[(4-tert-Butyl-phenyl)-hydroxy-methyl]-pyridin-4-yl}-benzonitrile]
EC50: 10.7 µM

COc1ccccc1C(O)c1cnccc1-c1cccc(C#N)c1 (stereo not shown) [Compound 28, 3-{3-[Hydroxy-(2-methoxy-phenyl)-methyl]-pyridin-4-yl}-benzonitrile]
EC50: 10.2 µM

COc1cccc(C(O)c2cnccc2-c2cccc(C#N)c2)c1 (stereo not shown) [Compound 29, 3-{3-[Hydroxy-(3-methoxy-phenyl)-methyl]-pyridin-4-yl}-benzonitrile]
EC50: 13.7 µM

COc1ccc(C(O)c2cnccc2-c2cccc(C#N)c2)cc1 (stereo not shown) [Compound 30, 3-{3-[Hydroxy-(4-methoxy-phenyl)-methyl]-pyridin-4-yl}-benzonitrile]
EC50: > 30 µM
% Stimulation: 7%

Cc1ccccc1C(O)c1cnccc1-c1cccc(C#N)c1 (stereo not shown) [Compound 31, 3-{3-[Hydroxy-(2-methyl-phenyl)-methyl]-pyridin-4-yl}-benzonitrile]
EC50: 15 µM

Cc1ccc(C(O)c2cnccc2-c2cccc(C#N)c2)cc1 (stereo not shown) [Compound 32, 3-{3-[Hydroxy-(4-methyl-phenyl)-methyl]-pyridin-4-yl}-benzonitrile]
EC50: 8.48 µM

CSc1ccc(C(O)c2cnccc2-c2cccc(C#N)c2)cc1 (stereo not shown) [Compound 34, 3-{3-[Hydroxy-(4-methylsulfanyl-phenyl)-methyl]-pyridin-4-yl}-benzonitrile]
EC50: 20.8 µM

Cc1cc(C)c(C(O)c2cnccc2-c2cccc(C#N)c2)c(C)c1 (stereo not shown) [Compound 35, 3-{3-[Hydroxy-(2,4,6-trimethyl-phenyl)-methyl]-pyridin-4-yl}-benzonitrile]
EC50: > 30 µM

COc1ccc(F)cc1C(O)c1cnccc1-c1cccc(C#N)c1 (stereo not shown) [Compound 36, 3-{3-[(5-Fluoro-2-methoxy-phenyl)-hydroxy-methyl]-pyridin-4-yl}-benzonitrile]
EC50: > 30 µM

COc1ccc(C(O)c2cnccc2-c2cccc(C#N)c2)cc1F (stereo not shown) [Compound 37, 3-{3-[(3-Fluoro-4-methoxy-phenyl)-hydroxy-methyl]-pyridin-4-yl}-benzonitrile]
EC50: 9.59 µM

Cc1ccc(F)cc1C(O)c1cnccc1-c1cccc(C#N)c1 (stereo not shown) [Compound 38, 3-{3-[(5-Fluoro-2-methyl-phenyl)-hydroxy-methyl]-pyridin-4-yl}-benzonitrile]
EC50: > 30 µM

N#Cc1cccc(-c2ccncc2C(O)C(F)(F)F)c1 (stereo not shown) [Compound 39, 3-[3-(2,2,2-Trifluoro-1-hydroxy-ethyl)-pyridin-4-yl]-benzonitrile]
EC50: 10.5 µM

O=C(c1ccccc1)c1ccncc1C(O)c1ccccc1 (stereo not shown) [Compound 43, [3-(Hydroxy-phenyl-methyl)-pyridin-4-yl]-phenyl-methanone]
EC50: 17.4 µM

CN(C)c1ccc(C(O)c2cnccc2C(=O)c2ccccc2)cc1 (stereo not shown) [Compound 44, {3-[(4-Dimethylamino-phenyl)-hydroxy-methyl]-pyridin-4-yl}-phenyl-methanone]
EC50: 17.4 µM

COc1ccc(C(O)c2cnccc2C(=O)c2ccccc2)cc1F (stereo not shown) [Compound 45, {3-[(3-Fluoro-4-methoxy-phenyl)-hydroxy-methyl]-pyridin-4-yl}-phenyl-methanone]
EC50: 11.6 µM

COc1ccc(OC)c(C(O)c2cnccc2C(=O)c2ccccc2)c1 (stereo not shown) [Compound 46, {3-[(2,5-Dimethoxy-phenyl)-hydroxy-methyl]-pyridin-4-yl}-phenyl-methanone]
EC50: 12.1 µM

O=C(c1ccccc1)c1ccncc1C(O)c1cccc(F)c1 (stereo not shown) [Compound 47, {3-[(3-Fluoro-phenyl)-hydroxy-methyl]-pyridin-4-yl}-phenyl-methanone]
EC50: 5.09 µM

N#Cc1cccc(C(=O)c2ccncc2C(O)c2ccccc2)c1 (stereo not shown) [Compound 48, 3-[3-(Hydroxy-phenyl-methyl)-pyridine-4-carbonyl]-benzonitrile]
EC50: 14.3 µM
